Test results reported in US11512053B2, “Arginine methyltransferase inhibitors and uses thereof” (priority 2013, dated 2022).
Structures can show the parent of a compound that is named as a salt. Where two headings read alike, the source gives them in different places.

Key:
[1] = molecular target: full-length human PRMT6 (Flag- and His-tagged) (Homo sapiens, UniProt Q96LA8); assay: PRMT6 Biochemical Assay (3H-SAM Flashplate, peptide substrate)
Excerpt: (§1) General Materials. S-adenosylmethionine (SAM), S-adenosylhomocysteine (SAH), bicine, Tween20, dimethylsulfoxide (DMSO), bovine skin gelatin (BSG), sodium butyrate and Tris(2-carboxyethyl)phosphine hydrochloride solution (TCEP) were purchased from Sigma-Aldrich at the highest level of purity possible. ^3H-SAM was purchase from American Radiolabeled Chemicals with a specific activity of 80 Ci/mmol. 384-well streptavidin Flashplates were purchased from PerkinElmer.
Substrates. Peptide representative of human histone H4 residues 36-50 was synthesized with an N-terminal linker-affinity tag motif and a C-terminal amide cap by 21st Century Biochemicals. The peptide was purified by high-performance liquid chromatography (HPLC) to greater than 95% purity and confirmed by liquid chromatography mass spectrometry (LC-MS). The sequence was Biot-Ahx-[…]-amide and contained a monomethylated lysine at position 44 (SEQ ID NO.:5).
Molecular Biology: Full-length human PRMT6 (NM_018137.2) transcript clone was amplified from an HEK 293 cDNA library, incorporating a flanking 5′ sequence encoding a FLAG tag ([…]) (SEQ ID NO.:6) fused directly to Ser 2 of PRMT6 and a 3′ sequence encoding a hexa His sequence (HHHHHH) (SEQ ID NO.:17) fused directly to Asp 375. The amplified gene was subcloned into pFastBacMam (Viva Biotech).
Protein Expression. Recombinant baculovirus were generated according to Bac-to-Bac kit instructions (Life Technologies). […] Infections were carried out at 37° C. for 48 hours, harvested by centrifugation, and stored at −80° C. for purification.
Protein Purification. […] Column was washed with 20 mM imidazole in the same buffer and Flag-PRMT6-His was eluted with 150 mM imidazole. Pooled fractions were dialysed against buffer N^1-A and further purified by anti-flag M2 affinity chromatography. Flag-PRMT6-His was eluted with 200 ug/ml FLAG peptide in the same buffer. Pooled fractions were dialysed in 20 mM Tris, 150 mM NaCl, 10% glycerol and 5 mM β-mercaptoethanol, pH 7.8. The purity of recovered protein was 95%.
General Procedure for PRMT6 Enzyme Assays on Peptide Substrates. The assays were all performed in a buffer consisting of 20 mM Bicine (pH=7.6), 1 mM TCEP, 0.005% BSG, and 0.002% Tween 20, prepared on the day of use. Compounds in 100% DMSO (1 ul) were spotted into a polypropylene 384-well V-bottom plates (Greiner) using a Platemate Plus outfitted with a 384-channel head (Thermo Scientific). DMSO (1 ul) was added to Columns 11, 12, 23, 24, rows A-H for the maximum signal control and 1 ul of SAH, a known product and inhibitor of PRMT6, was added to columns 11, 12, 23, 24, rows I-P for the minimum signal control. A cocktail (40 ul) containing the PRMT6 enzyme was added by Multidrop Combi (Thermo-Fisher). The compounds were allowed to incubate with PRMT6 for 30 min at room temperature, then a cocktail (10 ul) containing SAM and peptide was added to initiate the reaction (final volume=51 ul). The final concentrations of the components were as follows: PRMT6 was 1 nM, ^3H-SAM was 200 nM, non-radiolabeled SAM was 250 nM, peptide was 75 nM, SAH in the minimum signal control wells was 1 mM, and the DMSO concentration was 2%. The assays were stopped by the addition of non-radiolabeled SAM (10 ul) to a final concentration of 400 uM, which dilutes the ^3H-SAM to a level where its incorporation into the peptide substrate is no longer detectable. 50 ul of the reaction in the 384-well polypropylene plate was then transferred to a 384-well Flashplate and the biotinylated peptides were allowed to bind to the streptavidin surface for at least 1 hour before being washed once with 0.1% Tween20 in a Biotek ELx405 plate washer. The plates were then read in a PerkinElmer TopCount plate reader to measure the quantity of ^3H-labeled peptide bound to the Flashplate surface, measured as disintegrations per minute (dpm) or alternatively, referred to as counts per minute (cpm). […]

[2] = tested on: mono-methyl arginine in RKO cells; assay: RKO Methylation Assay, In Cell Western (ICW) for detection of mono-methyl arginine and DNA content; format: cell-based; details: for EC30: Homo sapiens, RKO, 72 h
Excerpt: RKO adherent cells were purchased from ATCC (American Type Culture Collection), Manassas, Va., USA. DMEM/Glutamax medium, penicillin-streptomycin, heat inactivated fetal bovine serum, 0.05% trypsin and D-PBS were purchased from Life Technologies, Grand Island, N.Y., USA. Odyssey blocking buffer, 800 CW goat anti-rabbit IgG (H+L) antibody, and Licor Odyssey infrared scanner were purchased from Licor Biosciences, Lincoln, Nebr., USA. Mono-methyl arginine antibody was purchased from Cell Signaling Technology, Danvers, Mass., USA. Methanol was purchased from VWR, Franklin, Mass., USA. 10% Tween 20 was purchased from KPL, Inc., Gaithersburg, Md., USA. DRAQ5 was purchased from Biostatus Limited, Leicestershire, UK.
RKO adherent cells were maintained in growth medium (DMEM/Glutamax medium supplemented with 10% v/v heat inactivated fetal bovine serum and 100 units/mL penicillin-streptomycin) and cultured at 37° C. under 5% CO2.
Cell treatment, In Cell Western (ICW) for detection of mono-methyl arginine and DNA content. […] Compound (100 nL) from a 96-well source plate was added directly to 384 well cell plate. Plates were incubated at 37° C., 5% CO2 for 72 hours. After three days of incubation, plates were brought to room temperature outside of the incubator for ten minutes and blotted on paper towels to remove cell media. 50 μL of ice cold 100% methanol was added directly to each well and incubated for 30 min at room temperature. After 30 min, plates were transferred to a Biotek EL406 plate washer and washed 2 times with 100 μL per well of wash buffer (1×PBS). Next 60 μL per well of Odyssey blocking buffer (Odyssey Buffer with 0.1% Tween 20 (v/v)) were added to each plate and incubated 1 hour at room temperature. Blocking buffer was removed and 20 μL per well of primary antibody was added (mono-methyl arginine diluted 1:200 in Odyssey buffer with 0.1% Tween 20 (v/v)) and plates were incubated overnight (16 hours) at 4° C. Plates were washed 5 times with 100 μL per well of wash buffer. […] The plates were washed 5 times with 100 μL per well wash buffer then 2 times with 100 μL per well of water. Plates were allowed to dry at room temperature then imaged on the Licor Odyssey machine which measures integrated intensity at 700 nm and 800 nm wavelengths. Both 700 and 800 channels were scanned.
Calculations: First, the ratio for each well was determined by:
Each plate included fourteen control wells of DMSO only treatment (minimum activation) as well as fourteen control wells for maximum activation treated with 20 μM of a reference compound. The average of the ratio values for each control type was calculated and used to determine the percent activation for each test well in the plate. Reference compound was serially diluted three-fold in DMSO for a total of nine test concentrations, beginning at 20 μM. Percent activation was determined and EC30 curves were generated using triplicate wells per concentration of compound.

[3] = molecular target: full-length human PRMT8 isoform 1 (Homo sapiens, UniProt Q9NR22); assay: PRMT8 Biochemical Assay (3H-SAM Flashplate, peptide substrate); details: single experiment or average of multiple experiments; read-out: Biochemical IC50 PRMT8
Excerpt: as §1, with “isopropyl-β-D-thiogalactopyranoside (IPTG),” for “sodium butyrate”
Substrates. Peptide representative of human histone H4 residues 31-45 was synthesized with an N-terminal linker-affinity tag motif and a C-terminal amide cap by 21st Century Biochemicals. The peptide was purified by high-performance liquid chromatography (HPLC) to greater than 95% purity and confirmed by liquid chromatography mass spectrometry (LC-MS). The sequence was Biot-Ahx-[…]-amide (SEQ ID NO.:8).
The resulting construct encodes an N-terminal GST tag and a thrombin cleavage sequence ([…] […] […] […] SPEF) (SEQ ID NO.:9) fused directly to Met 1 of PRMT8.
Protein Expression. E. coli (BL21(DE3) Gold, Stratagene) made competent by the CaCl2) method were transformed with the PRMT8 construct and ampicillin selection. Protein over-expression was accomplished by growing the PRMT8 expressing E. coli clone and inducing expression with 0.3 mM IPTG at 16° C. The culture was grown for 12 hours, harvested by centrifugation, and stored at −80° C. for purification.
Protein Purification. […] GST-tagged PRMT8 was eluted with 50 mM Tris, 2 mM glutathione, pH 7.8. Pooled fractions were cleaved by thrombin (10U) and dialysed in buffer A. GST was removed by reloading the cleaved protein sample onto glutathione sepharose column and PRMT8 was collected in the flow-through fractions. PRMT8 was purified further by ceramic hydroxyapatite chromatography. The column was washed with 50 mM phosphate buffer, 100 mM NaCl, 5% glycerol, 5 mM β-mercaptoethanol, pH 7.8 and PRMT8 was eluted by 100 mM phosphate in the same buffer. Protein was concentrated and buffer was exchanged to 50 mM Tris, 300 mM NaCl, 10% glycerol, 5 mM β-mercaptoethanol, pH 7.8 by ultrafiltration. The purity of recovered protein was 89%.
General Procedure for PRMT8 Enzyme Assays on Peptide Substrates. The assays were all performed in a buffer consisting of 20 mM Bicine (pH=7.6), 1 mM TCEP, 0.005% BSG, and 0.002% Tween 20, prepared on the day of use. Compounds in 100% DMSO (1 ul) were spotted into a polypropylene 384-well V-bottom plates (Greiner) using a Platemate Plus outfitted with a 384-channel head (Thermo Scientific). DMSO (1 ul) was added to Columns 11, 12, 23, 24, rows A-H for the maximum signal control and 1 ul of SAH, a known product and inhibitor of PRMT8, was added to columns 11, 12, 23, 24, rows I-P for the minimum signal control. A cocktail (40 ul) containing the PRMT8 enzyme was added by Multidrop Combi (Thermo-Fisher). The compounds were allowed to incubate with PRMT8 for 30 min at room temperature, then a cocktail (10 ul) containing ^3H-SAM and peptide was added to initiate the reaction (final volume=51 ul). The final concentrations of the components were as follows: PRMT8 was 1.5 nM, ^3H-SAM was 50 nM, non-radiolabeled SAM was 550 nM, peptide was 150 nM, SAH in the minimum signal control wells was 1 mM, and the DMSO concentration was 2%. The assays were stopped by the addition of non-radiolabeled SAM (10 ul) to a final concentration of 400 uM, which dilutes the ^3H-SAM to a level where its incorporation into the peptide substrate is no longer detectable. 50 ul of the reaction in the 384-well polypropylene plate was then transferred to a 384-well Flashplate and the biotinylated peptides were allowed to bind to the streptavidin surface for at least 1 hour before being washed once with 0.1% Tween20 in a Biotek ELx405 plate washer. […]

Chain of full-length human PRMT6 (Flag- and His-tagged) (Q96LA8 with tags, fused parts or gaps): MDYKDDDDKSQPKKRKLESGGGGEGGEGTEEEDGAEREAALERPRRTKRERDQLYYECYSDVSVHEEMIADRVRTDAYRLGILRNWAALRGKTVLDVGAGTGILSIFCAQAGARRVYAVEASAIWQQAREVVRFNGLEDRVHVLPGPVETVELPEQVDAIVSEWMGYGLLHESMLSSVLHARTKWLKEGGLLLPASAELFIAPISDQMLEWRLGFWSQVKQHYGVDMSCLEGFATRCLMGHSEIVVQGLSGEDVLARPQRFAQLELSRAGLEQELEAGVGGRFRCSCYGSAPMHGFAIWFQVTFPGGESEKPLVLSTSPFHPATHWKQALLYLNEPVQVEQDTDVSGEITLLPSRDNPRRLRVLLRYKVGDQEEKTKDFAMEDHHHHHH
Chain of full-length human PRMT8 isoform 1 (Q9NR22 whole entry, canonical isoform): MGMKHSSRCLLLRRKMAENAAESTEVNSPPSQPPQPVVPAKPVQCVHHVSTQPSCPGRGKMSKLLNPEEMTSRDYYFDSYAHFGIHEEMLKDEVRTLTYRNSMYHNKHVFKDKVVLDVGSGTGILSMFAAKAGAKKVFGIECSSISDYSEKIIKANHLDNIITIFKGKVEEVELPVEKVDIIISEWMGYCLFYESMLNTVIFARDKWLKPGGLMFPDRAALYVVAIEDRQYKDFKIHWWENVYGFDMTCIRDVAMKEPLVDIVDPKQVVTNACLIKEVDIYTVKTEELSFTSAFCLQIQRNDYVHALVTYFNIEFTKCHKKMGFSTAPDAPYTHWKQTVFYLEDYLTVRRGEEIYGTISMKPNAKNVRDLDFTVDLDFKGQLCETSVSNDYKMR

Question: For CCOCC1(COCC)CCC(c2n[nH]cc2CN(C)CCNC)CC1 [Compound 158, ([3-[4,4-bis(ethoxymethyl)cyclohexyl]-1H-pyrazol-4-yl]methyl)(methyl)[2-(methylamino)ethyl]amine hydrochloride salt], which IC50 ([1]; Biochemical IC50 PRMT6) is on record?
Answer: The IC50 was under 0.1 µM.

Question: And the IC50 ([1]; Biochemical IC50 PRMT6, single experiment or average of multiple experiments)?
Answer: Its IC50 is 0.091 µM.

Question: And the EC30 ([2]; read-out: In Cell Western EC30, RKO cells, 72 hours compound incubation, mono-methyl arginine signal normalised to DNA content (DRAQ5), percent activation vs 20 μM reference compound)?
Answer: Its EC30 is under 3 µM.

Question: And the EC30 ([2]; read-out: In Cell Western EC30, RKO cells, 72 hours incubation, mono-methyl arginine signal normalised to DNA content, single experiment or average of multiple experiments)?
Answer: The EC30 was 0.008 µM.

Question: Which results are given for CN(CCN)Cc1c[nH]nc1C1CCC(N2CCOCC2)CC1 (stereo not shown) [Compound 43, N^1-methyl-N^1-((3-(4-morpholinocyclohexyl)-1H-pyrazol-4-yl)methyl)ethane-1,2-diamine]?
Answer: IC50 [3]: 0.0116 µM; EC30 ([2]; RKO cells, 72 hours incubation, mono-methyl arginine signal normalised to DNA content, single experiment or average of multiple experiments, read-out: In Cell Western EC30): 2.6 µM; In Cell Western EC30 ([2]; RKO cells, 72 hours compound incubation, mono-methyl arginine signal normalised to DNA content (DRAQ5), percent activation vs 20 μM reference compound): A (“A” indicates an EC30 ≤ 3.00 μM)
